Like-named read-outs stand apart in the source and are kept apart here.
How the values were obtained:
HIV-1 −1 PRF signal = assay type: cell-based, human; conditions: for stimulation of HIV-1 directed −1 PRF: 5-500 μg/ml; for dose dependence of HIV-1 mediated −1 PRF: Example 2
[1] = tested on: SARS-CoV frameshift signal; assay type: cell-based, human
[2] = tested on: endogenous yeast "Killer" virus; assay: Yeast Killer virus maintenance assay after serial passage; assay type: cell-based; conditions: serial passage every 24 h for eight days
[3] = tested on: M1 satellite virus dsRNA genome; assay: dsRNA extraction and TAE-agarose gel of Killer yeast cells; assay type: cell-based; conditions: gentamicin treated Killer− cells, ~10-times more RNA loaded than control
HIV-1 strain LAI = assay: Limit-dilution titer of infectious virus with p24 antigen capture assay; assay type: cell-based; conditions: Jurkat E6-1, 250 μg/ml, days 4-10 post infection
Protocol: (A) Jurkat E6-1 cells were grown in RPMI-1640 media supplemented with 10% FBS. Cells were infected with HIV-1 (LAI) at an MOI of 0.01 in media containing gentamicin at 0, 50, 250, or 500 μg/ml. Infected or mock infected cells were maintained in the above media containing the corresponding concentration of gentamicin. Clarified viral supernatant was assayed for RT activity on days 2, 4, 6, 8, and 10 post infection. […] Results are from an average of 3 experiments with error bars corresponding to standard deviation values. (B) Clarified viral supernatants from days 4, 6, 8, and 10 above were used to perform limit-dilution assays in order to determine the level of infectious virus produced in untreated and gentamicin treated cells. A p24 antigen capture assay was used to detect virus. Results are reported as TCID50/ml vs. day post infection. The antigen capture assay was repeated with similar results while the RT activity assay was repeated twice with similar results.
Cells and viruses. Jurkat E6-1 cells (obtained through the ATCC) were cultured in RPMI-1640 supplemented with 10% fetal bovine serum at 37° C. and 5% CO2 according to the ATCC data sheet. HIV-1 strain LAI was obtained through the NIH AIDS Research and Reference Reagent Program.
HIV infection of Jurkat cells. All experiments were performed with Jurkat cells in 24-well plates and in duplicate. […]

Jurkat E6-1 cells = conditions: Jurkat E6-1, 500 μg/ml
HIV-1 RT = HIV-1 RT (Human immunodeficiency virus type 1 group M subtype B, UniProt P04585); assay: Control experiments on HIV-1 RT activity
[4] = HeLa cells, 5, 25, 50, 250 and 500 ug/ml
[5] = Jurkat cells, 5, 25, 50, 250 and 500 ug/ml

## gentamicin
HIV-1 −1 PRF signal; HeLa CD4+ and Jurkat cells, 50 μg/ml
  HIV-1 directed −1 PRF at the concentration normally used in cell culture: increased −1 PRF was observed
HIV-1 −1 PRF signal; HeLa CD4+ cells
  stimulation of HIV-1 directed −1 PRF: about 40%
HIV-1 −1 PRF signal; HeLa CD4+ cells, listed as Gentamicin
  stimulation of HIV-1 directed −1 PRF: up to 40%
HIV-1 −1 PRF signal; [4]
  dose dependence of HIV-1 mediated −1 PRF: dose-dependently increased
HIV-1 −1 PRF signal; [5]
  dose dependence of HIV-1 mediated −1 PRF: dose-dependently increased
HIV-1 −1 PRF signal; Jurkat cells
  stimulation of HIV-1 directed −1 PRF: about 40%
HIV-1 −1 PRF signal; Jurkat cells, listed as Gentamicin
  stimulation of HIV-1 directed −1 PRF: up to 40%
[1]; [4]
  dose dependence of SARS-CoV mediated −1 PRF: dose-dependently increased
[1]; [5]
  dose dependence of SARS-CoV mediated −1 PRF: dose-dependently increased
[2]; 50 μg/ml
  Killer phenotype maintenance: rapid loss of the Killer phenotype
[2]; 500 μg/ml
  Killer phenotype maintenance: rapid loss of the Killer phenotype
[3]
  presence of M1 dsRNA genome: no longer present
HIV-1 strain LAI
  infectious virus in cell-free supernatant: no infectious virus was made
Jurkat E6-1 cells
  cell toxicity: Significant cell toxicity
Jurkat E6-1 cells; listed as Gentamicin
  cell toxicity: significant cell toxicity
HIV-1 RT
  effect on HIV-1 RT activity: did not affect HIV-1 RT activity

Reference: patent publication US20110183892A1 (priority 2007, published 2011)
